Structures are written as SMILES.

One compound from patent US20080146606A1, “NOVEL COMPOUNDS” (priority 2006, published 2008) can be followed below.

This assay deals with LPS-induced TNFα production. As to the kind of experiment: LPS-induced TNFα production in rats. Format: in vivo. The note with it: Rattus norvegicus, po, pretreated orally. On the procedure:
Male Lewis rats (180-200 g) from Charles River Breeding Laboratories (Portage) ACUC Protocol#05051 were pretreated orally with compound or vehicle. After a determined pretreatment time, the rats were given LPS (lipopolysaccharide from Escherichia coli Serotype 055-B5, Sigma Chemical Co., St Louis, Mo.) 30 μg/rat in 0.5 ml saline, intraperitoneally. The rats were euthanized by CO2 inhalation 90 minutes after the LPS injection and blood samples were collected by cardiac puncture, transferred into heparinized tubes and stored on ice. The blood samples were centrifuged at 2000 rpm for 10 minutes and the plasma collected for analysis by specific ELISA for TNFα levels.
The plasma samples were assayed for TNFα according to manufactures specifications. TNFα levels were expressed as pg/ml. Elisa kits were purchased from R&D Systems Inc. (Rat TNFα Quantikine Kit Catalog#RTA00).

As to `O=S(=O)(NCCO)c1ccc(-c2ccnc3[nH]c(C4CC4)cc23)cc1` [Example 145a, 4-(2-Cyclopropyl-1H-pyrrolo[2,3-b]pyridin-4-yl)-N-(2-hydroxyethyl)-benzenesulfonamide], the ED50 (as a rule, the midpoint of the dose-response relation) is under 20 mg/kg.
